In patent publication US10590118B2, “Bicyclic heterocyclic derivatives as bromodomain inhibitors” (Orion Corporation, priority 2014, dated 2020) one finds IC50 data, which are given here for 16 molecules.

This test concerns the target T1, Bet bromodomain protein (BRD4) (Homo sapiens, UniProt O60885).
T1 construct: made in house
Nature of the test: Bet bromodomain TR-FRET assay. Type of test: binding. The conditions noted are these: 300 nM acetyl histone peptide substrate, results given as Group A/B/C. Here is the method: In-Vitro Biochemical Data of bicyclic heterocyclic derivatives in time-resolved fluorescence resonance energy transfer (TR-FRET) assay.
The Bet brommodomain TR-FRET assay has been used to identify compounds that bind to bet bromodomain and prevent its interaction with acetylated histone peptides.
In the assay, optimized concentration of in-house Bet bromodomain protein (BRD4) and 300 nM of acetyl histone peptide substrate were diluted in assay buffer (50 mM HEPES, pH: 7.5, 50 mM NaCl, 500 μM CHAPS) and were added to the positive control and test control wells in a 384 well plate. Substrate control wells have 300 nM of acetyl histone peptide substrate diluted in assay buffer. Buffer blank wells were added with assay buffer. The reaction mixture was allowed for incubation at room temperature for 30 mins. Stock solutions of test compounds at 20 mM DMSO are prepared. Compounds are serially diluted and added to the test wells in 384-well polypropylene plates. The reaction mixture was further incubated for 30 mins at room temperature on a plate shaker. 2 nM of Europium labeled streptavidn and 10 nM of XL-665 labeled antibody diluted in detection buffer (50 mM HEPES, pH: 7.5, 50 mM NaCl, 500 μM CHAPS and 800 mM KF) were added to all the wells excluding the buffer blank wells. The reaction plate was incubated for additional 30 mins at room temperature on plate shaker. The plate was read in Perkin Elmer WALLAC 1420 Multilabel Counter Victor 3 (Ex: 340 nm Em: 615 and 665 nm). The amount of displacement of the peptide was measured as ratio of specific 665 nm energy transfer signal to 615 nm signals. The compounds IC50 was determined by fitting the dose response data to sigmoid curve fitting equation using Graph Pad Prism software V5.
Turning to `COc1cc2c(cc1-c1c(C)noc1C)OCC(=O)N2Cc1ccc(Cl)cn1` [Compound 28, 4-((5-chloropyridin-2-yl)methyl)-7-(3,5-dimethylisoxazol-4-yl)-6-methoxy-2H-benzo[b][1,4]oxazin-3(4H)-one], the IC50 (commonly the midpoint of a concentration-inhibition curve) was at most 1000 nM. In the case of `COc1cc2c(cc1-c1c(C)noc1C)OCC(=O)N2Cc1ccc(F)cn1` [Compound 29, 7-(3,5-dimethylisoxazol-4-yl)-4-((5-fluoropyridin-2-yl)methyl)-6-methoxy-2H-benzo[b][1,4]oxazin-3(4H)-one] it was at most 1000 nM.

As to `COc1ccc(CN2C(=O)COc3cc(-c4c(C)noc4C)c(OC)cc32)nc1` [Compound 30, 7-(3,5-dimethylisoxazol-4-yl)-6-methoxy-4-((5-methoxypyridin-2-yl)methyl)-2H-benzo[b][1,4]oxazin-3(4H)-one], the IC50 is 1000 to 3000 nM. With `COc1cc2c(cc1-c1c(C)noc1C)OCC(=O)N2C(C)c1ccccn1` (stereo not shown) [Compound 31], the IC50 is 1000 to 3000 nM. The value for `COc1cc2c(cc1-c1c(C)noc1C)OCC(=O)N2Cc1ccc(C)nc1` [Compound 32, 7-(3,5-dimethylisoxazol-4-yl)-6-methoxy-4-((6-methylpyridin-3-yl)methyl)-2H-benzo[b][1,4]oxazin-3(4H)-one] was at most 1000 nM.

As to `COc1cc2c(cc1-c1c(C)noc1C)OCC(=O)N2CCc1ccccn1` [Compound 35, 7-(3,5-dimethylisoxazol-4-yl)-6-methoxy-4-(2-(pyridin-2-yl)ethyl)-2H-benzo[b][1,4]oxazin-3(4H)-one], the IC50 was 1000 to 3000 nM. In the case of `COc1cc2c(ccc(=O)n2Cc2cccnc2)cc1-c1c(C)noc1C` [Compound 36, 6-(3,5-dimethylisoxazol-4-yl)-7-methoxy-1-(pyridin-3-ylmethyl)quinolin-2(1H)-one] it was at most 1000 nM; in that of `COc1cc2c(ccc(=O)n2Cc2ccc(Cl)cn2)cc1-c1c(C)noc1C` [Compound 37, 1-((5-chloropyridin-2-yl)methyl)-6-(3,5-dimethylisoxazol-4-yl)-7-methoxyquinolin-2(1H)-one], at most 1000 nM. `COc1cc2c(ccc(=O)n2CCN2CCOCC2)cc1-c1c(C)noc1C` [Compound 38, 6-(3,5-dimethylisoxazol-4-yl)-7-methoxy-1-(2-morpholinoethyl)quinolin-2(1H)-one] had an IC50 of at most 1000 nM.

As for `COc1cc2c(ccc(=O)n2Cc2nccs2)cc1-c1c(C)noc1C` [Compound 39, 6-(3,5-dimethylisoxazol-4-yl)-7-methoxy-1-(thiazol-2-ylmethyl)quinolin-2(1H)-one], the IC50 was at most 1000 nM. In the case of `COc1cc2c(ccc(=O)n2C(C)c2ccccn2)cc1-c1c(C)noc1C` (stereo not shown) [Compound 40, 6-(3,5-dimethytisoxazol-4-yl)-7-methoxy-1-(1-(pyridin-2-yl)ethyl)quinolin-2(1H)-one] it was at most 1000 nM. The value for `COc1cc2c(ccc(=O)n2C(C)c2cccnc2)cc1-c1c(C)noc1C` (stereo not shown) [Compound 41, 6-(3,5-dimethylisoxazol-4-yl)-7-methoxy-1-(1-(pyridin-3-yl)ethyl)quinolin-2(1H)-one] was at most 1000 nM; that for `COc1cc2c(ccc(=O)n2CCc2ccccn2)cc1-c1c(C)noc1C` [Compound 42, 6-(3,5-dimethylisoxazol-4-yl)-7-methoxy-1-(2-(pyridin-2-yl)ethyl)quinolin-2(1H)-one] was 1000 to 3000 nM.

As for `COc1cc2c(ccc(=O)n2Cc2ncccn2)cc1-c1c(C)noc1C` [Compound 43, 6-(3,5-dimethylisoxazol-4-yl)-7-methoxy-1-(pyrimidin-2-ylmethyl)quinolin-2(1H)-one], the IC50 is at most 1000 nM. In the case of `COc1cc2c(ccc(=O)n2Cc2ccncn2)cc1-c1c(C)noc1C` [Compound 44, 6-(3,5-dimethylisoxazol-4-yl)-7-methoxy-1-(pyrimidin-4-ylmethyl)quinolin-2(1H)-one] it was at most 1000 nM; in that of `COc1cc2c(ccc(=O)n2Cc2ccc(F)cn2)cc1-c1c(C)noc1C` [Compound 45, 6-(3,5-dimethylisoxazol-4-yl)-1-((5-fluoropyridin-2-yl)methyl)-7-methoxyquinolin-2(1H)-one], at most 1000 nM.
